Columns and labels:
[1] = target: Tyrosine-protein kinase HCK (Homo sapiens) (UniProt P08631)
[2] = target: Cyclin-dependent kinase 4 (Homo sapiens) (UniProt P11802)
[3] = target: Citron Rho-interacting kinase (Homo sapiens) (UniProt O14578)
[4] = target: Glycogen synthase kinase-3 alpha (Homo sapiens, UniProt P49840)
[5] = target: Serine/threonine-protein kinase SIK2 (Homo sapiens) (UniProt Q9H0K1)
[6] = target: Misshapen-like kinase 1 (Homo sapiens) (UniProt Q8N4C8)
[7] = target: Dual specificity mitogen-activated protein kinase kinase 3 (Homo sapiens) (UniProt P46734)
[8] = target: Mitogen-activated protein kinase kinase kinase 10 (Homo sapiens) (UniProt Q02779)
[9] = target: Serine/threonine-protein kinase Nek3 (Homo sapiens) (UniProt P51956)
[10] = target: Cyclin-dependent kinase 2 (Homo sapiens, UniProt P24941)
[11] = target: Calcium/calmodulin-dependent protein kinase type II subunit beta (Homo sapiens) (UniProt Q13554)
Calcium/calmodulin-dependent protein kinase type II subunit beta (Homo sapiens), sequence (Q13554 whole entry): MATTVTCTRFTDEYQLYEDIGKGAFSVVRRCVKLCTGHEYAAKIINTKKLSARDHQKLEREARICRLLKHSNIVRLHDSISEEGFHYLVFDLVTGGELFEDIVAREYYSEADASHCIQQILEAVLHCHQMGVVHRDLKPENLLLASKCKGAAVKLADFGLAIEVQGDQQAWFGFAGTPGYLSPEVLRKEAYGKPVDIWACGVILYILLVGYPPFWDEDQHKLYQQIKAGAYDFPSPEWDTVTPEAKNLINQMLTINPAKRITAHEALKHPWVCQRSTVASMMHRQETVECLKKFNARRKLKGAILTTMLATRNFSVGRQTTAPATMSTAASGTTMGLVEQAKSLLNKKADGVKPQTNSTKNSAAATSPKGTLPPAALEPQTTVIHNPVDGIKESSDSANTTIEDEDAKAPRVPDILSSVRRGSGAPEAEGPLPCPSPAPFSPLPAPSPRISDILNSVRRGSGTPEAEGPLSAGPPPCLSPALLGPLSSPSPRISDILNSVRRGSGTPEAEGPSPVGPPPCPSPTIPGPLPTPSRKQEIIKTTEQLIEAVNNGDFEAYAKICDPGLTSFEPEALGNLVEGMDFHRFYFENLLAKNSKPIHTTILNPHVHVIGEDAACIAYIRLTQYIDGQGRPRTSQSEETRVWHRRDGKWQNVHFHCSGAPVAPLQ

[12] = target: Insulin-like growth factor 1 receptor (Homo sapiens) (UniProt P08069)
[13] = target: Testis-specific serine/threonine-protein kinase 1 (Homo sapiens) (UniProt Q9BXA7)
[14] = target: Serine/threonine-protein kinase Sgk1 (Homo sapiens) (UniProt O00141)
[15] = test system: Tyrosine-protein kinase ABL1 (Homo sapiens), P00519 [F317L]
[16] = target: Dual specificity mitogen-activated protein kinase kinase 4 (Homo sapiens) (UniProt P45985)
[17] = target: Tyrosine-protein kinase Lck (Homo sapiens) (UniProt P06239)
[18] = target: Focal adhesion kinase 1 (Homo sapiens) (UniProt Q05397)
[19] = target: Serine/threonine-protein kinase 32C (Homo sapiens) (UniProt Q86UX6)
[20] = target: STE20/SPS1-related proline-alanine-rich protein kinase (Homo sapiens) (UniProt Q9UEW8)
[21] = target: Homeodomain-interacting protein kinase 2 (Homo sapiens) (UniProt Q9H2X6)
[22] = target: Serine/threonine-protein kinase TAO2 (Homo sapiens) (UniProt Q9UL54)
[23] = target: Eukaryotic translation initiation factor 2-alpha kinase 1 (Homo sapiens) (UniProt Q9BQI3)
Eukaryotic translation initiation factor 2-alpha kinase 1 (Homo sapiens), sequence (Q9BQI3 whole entry, canonical isoform): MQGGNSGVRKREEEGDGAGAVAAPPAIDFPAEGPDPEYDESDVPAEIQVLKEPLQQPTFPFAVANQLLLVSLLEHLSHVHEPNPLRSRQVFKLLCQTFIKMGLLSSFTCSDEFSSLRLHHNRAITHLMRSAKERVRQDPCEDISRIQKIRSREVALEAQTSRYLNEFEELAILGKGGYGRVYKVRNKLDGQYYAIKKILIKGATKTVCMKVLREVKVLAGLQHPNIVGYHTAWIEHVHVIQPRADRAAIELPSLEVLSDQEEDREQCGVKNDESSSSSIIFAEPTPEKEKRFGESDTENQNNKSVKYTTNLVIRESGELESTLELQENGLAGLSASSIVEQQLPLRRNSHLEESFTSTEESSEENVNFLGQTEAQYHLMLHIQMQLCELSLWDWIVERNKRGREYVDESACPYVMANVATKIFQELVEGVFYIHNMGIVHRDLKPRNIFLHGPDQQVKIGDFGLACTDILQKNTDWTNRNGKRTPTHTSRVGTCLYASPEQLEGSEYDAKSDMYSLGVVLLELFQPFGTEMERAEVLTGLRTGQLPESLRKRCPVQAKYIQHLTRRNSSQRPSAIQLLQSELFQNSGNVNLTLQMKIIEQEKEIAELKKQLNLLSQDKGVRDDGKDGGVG

[24] = test system: Phosphatidylinositol 4,5-bisphosphate 3-kinase catalytic subunit alpha isoform (Homo sapiens), P42336 [C420R]
[25] = target: Mitogen-activated protein kinase kinase kinase 13 (Homo sapiens) (UniProt O43283)
[26] = target: Fibroblast growth factor receptor 2 (Homo sapiens) (UniProt P21802)
[27] = target: Serine/threonine-protein kinase N2 (Homo sapiens) (UniProt Q16513)
[28] = target: Calcium/calmodulin-dependent protein kinase type IV (Homo sapiens) (UniProt Q16566)
[29] = target: Mitogen-activated protein kinase 1 (Homo sapiens, UniProt P28482)
[30] = target: Serine/threonine-protein kinase 17A (Homo sapiens) (UniProt Q9UEE5)
Serine/threonine-protein kinase 17A (Homo sapiens), sequence (Q9UEE5 whole entry): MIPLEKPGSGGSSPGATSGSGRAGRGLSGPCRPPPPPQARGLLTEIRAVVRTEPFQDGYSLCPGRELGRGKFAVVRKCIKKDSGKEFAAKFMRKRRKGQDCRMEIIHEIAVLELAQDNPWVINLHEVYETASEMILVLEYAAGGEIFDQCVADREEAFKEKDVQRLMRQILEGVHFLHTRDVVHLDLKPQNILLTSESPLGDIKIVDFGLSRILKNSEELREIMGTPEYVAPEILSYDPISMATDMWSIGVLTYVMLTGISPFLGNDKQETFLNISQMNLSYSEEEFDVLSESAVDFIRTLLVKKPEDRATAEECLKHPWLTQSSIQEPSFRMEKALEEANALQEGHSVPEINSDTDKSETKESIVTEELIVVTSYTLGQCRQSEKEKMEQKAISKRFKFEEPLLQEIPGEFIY

[31] = target: Serine/threonine-protein kinase MRCK alpha (Homo sapiens) (UniProt Q5VT25)
[32] = target: Sodium-dependent serotonin transporter (Homo sapiens) (UniProt P31645); settings: Compound concentration 10.0 uM
[33] = target: Tyrosine-protein kinase ITK/TSK (Homo sapiens) (UniProt Q08881)
[34] = target: Fibroblast growth factor receptor 4 (Homo sapiens) (UniProt P22455)
[35] = target: BMP-2-inducible protein kinase (Homo sapiens) (UniProt Q9NSY1)
[36] = target: Receptor-interacting serine/threonine-protein kinase 1 (Homo sapiens) (UniProt Q13546)
Receptor-interacting serine/threonine-protein kinase 1 (Homo sapiens), sequence (Q13546 whole entry): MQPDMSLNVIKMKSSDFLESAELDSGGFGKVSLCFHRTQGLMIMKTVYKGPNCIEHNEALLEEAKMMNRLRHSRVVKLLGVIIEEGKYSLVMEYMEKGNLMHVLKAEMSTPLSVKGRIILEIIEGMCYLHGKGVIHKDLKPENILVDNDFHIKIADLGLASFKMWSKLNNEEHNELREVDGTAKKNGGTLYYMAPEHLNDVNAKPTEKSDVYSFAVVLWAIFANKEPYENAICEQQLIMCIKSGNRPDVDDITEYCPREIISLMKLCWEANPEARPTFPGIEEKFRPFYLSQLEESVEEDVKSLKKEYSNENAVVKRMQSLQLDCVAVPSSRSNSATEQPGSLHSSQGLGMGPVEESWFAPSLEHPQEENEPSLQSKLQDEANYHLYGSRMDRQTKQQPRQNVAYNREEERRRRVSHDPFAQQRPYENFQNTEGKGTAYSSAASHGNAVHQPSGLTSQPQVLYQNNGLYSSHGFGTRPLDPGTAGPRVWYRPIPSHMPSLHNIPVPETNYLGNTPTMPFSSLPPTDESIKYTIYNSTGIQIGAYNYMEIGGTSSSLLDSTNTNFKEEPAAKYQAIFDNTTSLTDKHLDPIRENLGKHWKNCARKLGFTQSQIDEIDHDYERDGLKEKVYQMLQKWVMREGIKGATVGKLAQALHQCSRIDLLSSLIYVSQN

[37] = target: Mitogen-activated protein kinase kinase kinase 2 (Homo sapiens) (UniProt Q9Y2U5)
Mitogen-activated protein kinase kinase kinase 2 (Homo sapiens), sequence (Q9Y2U5 whole entry): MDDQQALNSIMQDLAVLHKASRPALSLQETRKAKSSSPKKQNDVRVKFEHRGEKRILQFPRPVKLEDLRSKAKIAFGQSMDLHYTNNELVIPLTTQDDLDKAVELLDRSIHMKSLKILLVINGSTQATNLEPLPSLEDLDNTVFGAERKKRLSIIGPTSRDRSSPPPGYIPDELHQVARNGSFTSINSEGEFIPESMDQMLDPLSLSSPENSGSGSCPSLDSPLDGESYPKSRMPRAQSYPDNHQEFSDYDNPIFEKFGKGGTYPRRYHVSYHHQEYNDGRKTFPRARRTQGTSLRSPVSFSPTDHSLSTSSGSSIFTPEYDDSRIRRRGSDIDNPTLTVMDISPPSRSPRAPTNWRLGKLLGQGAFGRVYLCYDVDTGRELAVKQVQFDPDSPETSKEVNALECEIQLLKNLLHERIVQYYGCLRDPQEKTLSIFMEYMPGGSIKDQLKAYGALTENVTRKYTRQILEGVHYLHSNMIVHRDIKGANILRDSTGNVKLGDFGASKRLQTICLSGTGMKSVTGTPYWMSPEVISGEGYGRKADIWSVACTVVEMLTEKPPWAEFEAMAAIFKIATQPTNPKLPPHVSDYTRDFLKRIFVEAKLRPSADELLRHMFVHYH

[38] = target: Serine/threonine-protein kinase DCLK1 (Homo sapiens) (UniProt O15075)
[39] = target: Mitogen-activated protein kinase kinase kinase kinase 2 (Homo sapiens) (UniProt Q12851)
Mitogen-activated protein kinase kinase kinase kinase 2 (Homo sapiens), sequence (Q12851 whole entry): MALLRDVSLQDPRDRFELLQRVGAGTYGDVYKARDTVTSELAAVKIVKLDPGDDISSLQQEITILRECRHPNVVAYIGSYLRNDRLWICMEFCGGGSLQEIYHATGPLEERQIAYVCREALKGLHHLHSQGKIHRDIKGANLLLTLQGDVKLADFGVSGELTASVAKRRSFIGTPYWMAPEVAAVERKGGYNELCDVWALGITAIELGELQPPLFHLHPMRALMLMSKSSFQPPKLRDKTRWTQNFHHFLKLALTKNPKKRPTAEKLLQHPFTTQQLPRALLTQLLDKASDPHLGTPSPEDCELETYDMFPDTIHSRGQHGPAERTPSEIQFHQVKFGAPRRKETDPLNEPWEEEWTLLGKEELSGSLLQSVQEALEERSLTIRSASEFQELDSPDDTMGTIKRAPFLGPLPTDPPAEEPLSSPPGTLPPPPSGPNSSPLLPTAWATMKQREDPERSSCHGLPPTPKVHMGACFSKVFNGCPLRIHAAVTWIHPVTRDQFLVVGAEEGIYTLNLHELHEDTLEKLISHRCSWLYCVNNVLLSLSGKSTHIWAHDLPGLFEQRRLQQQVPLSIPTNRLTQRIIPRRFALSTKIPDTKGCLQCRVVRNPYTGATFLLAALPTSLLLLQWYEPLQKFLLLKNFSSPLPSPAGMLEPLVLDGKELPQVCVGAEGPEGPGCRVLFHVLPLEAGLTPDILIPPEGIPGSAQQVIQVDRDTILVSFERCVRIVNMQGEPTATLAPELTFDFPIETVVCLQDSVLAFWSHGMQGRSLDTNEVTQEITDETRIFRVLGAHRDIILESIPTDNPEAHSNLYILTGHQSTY

[40] = target: Phosphatidylinositol 5-phosphate 4-kinase type-2 gamma (Homo sapiens) (UniProt Q8TBX8)
[41] = target: Serine/threonine-protein kinase Chk2 (Homo sapiens) (UniProt O96017)
Serine/threonine-protein kinase Chk2 (Homo sapiens), sequence (O96017 whole entry): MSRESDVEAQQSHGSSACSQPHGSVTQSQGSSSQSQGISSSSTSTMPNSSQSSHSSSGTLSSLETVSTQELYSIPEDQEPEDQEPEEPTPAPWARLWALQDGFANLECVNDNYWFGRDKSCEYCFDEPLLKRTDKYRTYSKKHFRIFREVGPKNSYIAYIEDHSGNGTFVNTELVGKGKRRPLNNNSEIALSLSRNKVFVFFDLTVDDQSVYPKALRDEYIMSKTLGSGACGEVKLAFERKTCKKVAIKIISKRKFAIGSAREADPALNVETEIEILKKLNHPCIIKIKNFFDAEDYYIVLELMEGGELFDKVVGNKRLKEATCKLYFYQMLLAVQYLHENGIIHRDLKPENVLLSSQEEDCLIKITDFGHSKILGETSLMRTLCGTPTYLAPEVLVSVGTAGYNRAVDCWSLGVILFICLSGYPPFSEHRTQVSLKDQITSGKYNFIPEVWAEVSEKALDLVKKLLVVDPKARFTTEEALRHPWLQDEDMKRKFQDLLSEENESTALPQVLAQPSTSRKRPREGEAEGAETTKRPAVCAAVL

[42] = test system: Tyrosine-protein kinase ABL1 (Homo sapiens), P00519 [T315I]
[43] = test system: Receptor-type tyrosine-protein kinase FLT3 (Homo sapiens), P36888 [N841I]
[44] = test system: Epidermal growth factor receptor (Homo sapiens), P00533 [UNDEFINED MUTATION]
[45] = test system: Tyrosine-protein kinase ABL1 (Homo sapiens), P00519 [F317L]; remark: listed apart in the source
[46] = Compound concentration 100.0 nM
[47] = Compound concentration 1000.0 nM

Tyrosine-protein kinase HCK (Homo sapiens), sequence (P08631 2-526 limits assumed): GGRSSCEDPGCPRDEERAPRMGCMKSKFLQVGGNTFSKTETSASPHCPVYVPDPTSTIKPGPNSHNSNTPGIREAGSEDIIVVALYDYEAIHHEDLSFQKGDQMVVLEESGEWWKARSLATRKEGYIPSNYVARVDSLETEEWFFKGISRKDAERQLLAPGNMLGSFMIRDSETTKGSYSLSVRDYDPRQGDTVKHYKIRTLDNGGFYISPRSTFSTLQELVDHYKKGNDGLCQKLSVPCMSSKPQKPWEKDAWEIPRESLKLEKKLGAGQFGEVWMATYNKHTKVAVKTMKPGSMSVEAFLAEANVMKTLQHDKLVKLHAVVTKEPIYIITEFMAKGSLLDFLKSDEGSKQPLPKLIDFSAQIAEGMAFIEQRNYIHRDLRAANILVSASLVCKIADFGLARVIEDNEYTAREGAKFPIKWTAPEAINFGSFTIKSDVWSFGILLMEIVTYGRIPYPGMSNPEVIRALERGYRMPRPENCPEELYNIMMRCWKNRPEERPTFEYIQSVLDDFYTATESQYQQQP

How did the residual activity [1, 46] turn out when C[C@@H](NC(=O)Nc1cc2[nH]ncc2c(CO)n1)c1ccccc1 [ERKi] was run?
The residual activity was 94.6%.

What about the residual activity [2, 46] of the same compound?
The residual activity was 83.1%.

And the residual activity [3, 46]?
The residual activity was 100%.

And the residual activity [4, 46]?
Its residual activity is 88%.

What about the residual activity [5, 46] of the same compound?
The residual activity was 85.7%.

And the residual activity [6, 46]?
The residual activity was 90.1%.

What about the residual activity [7, 46] of the same compound?
The residual activity was 77%.

And the residual activity [8, 46]?
Its residual activity is 100%.

And the residual activity [9, 46]?
Its residual activity is 79.6%.

And the residual activity [10, 46]?
Its residual activity is 75.7%.

And the residual activity [11, 46]?
The residual activity was 75.2%.

What about the residual activity [12, 46] of the same compound?
Its residual activity is 97.9%.

What about the residual activity [13, 46] of the same compound?
The residual activity was 94.6%.

And the residual activity [14, 46]?
Its residual activity is 62.5%.

And the residual activity [15, 46]?
The residual activity was 82.1%.

What about the residual activity [16, 46] of the same compound?
Its residual activity is 89.2%.

What about the residual activity [17, 46] of the same compound?
The residual activity was 94.8%.

And the residual activity [18, 46]?
The residual activity was 85.7%.

And the residual activity [19, 46]?
Its residual activity is 100%.

And the residual activity [20, 46]?
The residual activity was 100%.

And the residual activity [21, 46]?
The residual activity was 85.6%.

And the residual activity [22, 46]?
The residual activity was 74.7%.

What about the residual activity [23, 46] of the same compound?
Its residual activity is 92.8%.

What about the residual activity [24, 46] of the same compound?
The residual activity was 89.2%.

And the residual activity [25, 46]?
The residual activity was 100%.

What about the residual activity [26, 46] of the same compound?
The residual activity was 100%.

What about the residual activity [27, 46] of the same compound?
The residual activity was 83.4%.

What about the residual activity [28, 46] of the same compound?
Its residual activity is 100%.

What about the residual activity [29, 46] of the same compound?
Its residual activity is 1%.

What about the residual activity [30, 46] of the same compound?
The residual activity was 88%.

What about the residual activity [31, 46] of the same compound?
The residual activity was 86.5%.

And the inhibition [32]?
Its inhibition is 2.86%.

And the residual activity [33, 46]?
Its residual activity is 83.2%.

And the residual activity [34, 46]?
The residual activity was 100%.

What about the residual activity [35, 46] of the same compound?
The residual activity was 91.9%.

What about the residual activity [36, 46] of the same compound?
Its residual activity is 100%.

What about the residual activity [37, 46] of the same compound?
The residual activity was 87.3%.

And the residual activity [38, 46]?
Its residual activity is 90.3%.

And the residual activity [39, 46]?
Its residual activity is 78.3%.

What about the residual activity [40, 46] of the same compound?
The residual activity was 95%.

And the residual activity [41, 46]?
The residual activity was 100%.

What about the residual activity [42, 46] of the same compound?
Its residual activity is 100%.

What about the residual activity [43, 46] of the same compound?
Its residual activity is 88.2%.

And the residual activity [44, 46]?
Its residual activity is 92.2%.

And the residual activity [45, 46]?
The residual activity was 100%.

How did the residual activity [1, 47] turn out when C[C@H](NC(=O)Nc1cc2[nH]ncc2c(CO)n1)c1ccccn1 [ERKi-NC] was run?
Its residual activity is 100%.

And the residual activity [2, 47]?
Its residual activity is 100%.

What about the residual activity [3, 47] of the same compound?
The residual activity was 99.9%.

What about the residual activity [4, 47] of the same compound?
The residual activity was 100%.

What about the residual activity [5, 47] of the same compound?
The residual activity was 94%.

What about the residual activity [6, 47] of the same compound?
The residual activity was 77.7%.

And the residual activity [7, 47]?
The residual activity was 76.3%.

And the residual activity [8, 47]?
The residual activity was 100%.

And the residual activity [9, 47]?
Its residual activity is 46.8%.

What about the residual activity [10, 47] of the same compound?
The residual activity was 100%.

And the residual activity [11, 47]?
The residual activity was 100%.

What about the residual activity [12, 47] of the same compound?
The residual activity was 100%.

What about the residual activity [13, 47] of the same compound?
The residual activity was 99%.

What about the residual activity [14, 47] of the same compound?
Its residual activity is 97.4%.

What about the residual activity [15, 47] of the same compound?
The residual activity was 91.9%.

And the residual activity [16, 47]?
The residual activity was 88.9%.

And the residual activity [17, 47]?
The residual activity was 81.5%.

And the residual activity [18, 47]?
The residual activity was 100%.

And the residual activity [19, 47]?
The residual activity was 74%.

What about the residual activity [20, 47] of the same compound?
Its residual activity is 80.9%.

What about the residual activity [21, 47] of the same compound?
The residual activity was 83.9%.

What about the residual activity [22, 47] of the same compound?
Its residual activity is 82.3%.

What about the residual activity [23, 47] of the same compound?
The residual activity was 100%.

What about the residual activity [24, 47] of the same compound?
Its residual activity is 97.1%.

And the residual activity [25, 47]?
Its residual activity is 100%.

What about the residual activity [26, 47] of the same compound?
The residual activity was 62%.

And the residual activity [27, 47]?
Its residual activity is 100%.

What about the residual activity [28, 47] of the same compound?
Its residual activity is 96.4%.

What about the residual activity [29, 47] of the same compound?
The residual activity was 50%.

And the residual activity [30, 47]?
The residual activity was 100%.

What about the residual activity [31, 47] of the same compound?
Its residual activity is 93.5%.

What about the inhibition [32] of the same compound?
The inhibition was -0.787%.

What about the residual activity [33, 47] of the same compound?
Its residual activity is 100%.

And the residual activity [34, 47]?
Its residual activity is 100%.

What about the residual activity [35, 47] of the same compound?
The residual activity was 100%.

What about the residual activity [36, 47] of the same compound?
The residual activity was 100%.

What about the residual activity [37, 47] of the same compound?
The residual activity was 98.4%.

What about the residual activity [38, 47] of the same compound?
The residual activity was 71.1%.

What about the residual activity [39, 47] of the same compound?
The residual activity was 100%.

And the residual activity [40, 47]?
The residual activity was 100%.

What about the residual activity [41, 47] of the same compound?
The residual activity was 95.9%.

What about the residual activity [42, 47] of the same compound?
The residual activity was 100%.

And the residual activity [43, 47]?
Its residual activity is 100%.

What about the residual activity [44, 47] of the same compound?
The residual activity was 100%.

What about the residual activity [45, 47] of the same compound?
The residual activity was 100%.
